Data from patent publication US10221163B2 (priority 2015, dated 2019).
Like-named read-outs stand apart in the source and are kept apart here.

Tests used:
[1] = tested on: Pseudomonas aeruginosa efflux+ (MB9798), IMP-1; type: cell-based; conditions: concentration restoring susceptibility to imipenem at 2 μg/mL in the presence of a class A, C, D serine β-lactamase inhibitor closely related to relebactam
In short: (§1)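 PAO1 pair, broth microdilution; fixed β-lactam (imipenem/ceftazidime) at ~CLSI breakpoint + fixed class A/C BLI for AmpC; serial MBLi titration; endpoint = MBLi conc. restoring susceptibility; MB9798:MB9799 ratio = efflux liability.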

[2] = tested on: Escherichia coli expressing NDM-1 (CLB30005, CLB30016); type: cell-based; conditions: with imipenem 1 μg/ml; 95% inhibition of bacterial growth
In short: (§2)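 Clinical isolates (E. coli NDM-1, S. marcescens IMP-1, K. pneumoniae VIM-1) were diluted 1:100 from saline suspension into 1.1×CAMHB and exposed to test compound with imipenem at 1 μg/ml. Plates were incubated at 35° C for 22 hours to 24 hours, and growth was read by absorbance.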

[3] = tested on: Serratia marcescens expressing IMP-1 (CL5741); type: cell-based; conditions: with imipenem 1 μg/ml; 95% inhibition of bacterial growth
In short: as §2

[4] = tested on: Klebsiella pneumoniae expressing VIM-1 (IHMA599644); type: cell-based; conditions: with imipenem 1 μg/ml; 95% inhibition of bacterial growth
In short: as §2

[5] = tested on: Pseudomonas aeruginosa MB9798 vs MB9799; conditions: ratio MITC95 PA_9798/MITC95 PA_9799
In short: as §1

[6] = tested on: Pseudomonas aeruginosa efflux− (MB9799), IMP-1; type: cell-based; conditions: concentration restoring susceptibility to imipenem at 2 μg/mL in the presence of a class A, C, D serine β-lactamase inhibitor closely related to relebactam
In short: as §1

[7] = molecular target: NDM-1 (Klebsiella pneumoniae, UniProt C7C422); assay: biochemical; type: biochemical; conditions: CCF2-FA substrate, 1 pM enzyme, 2 hours at 25° C.
Chain of NDM-1 (C7C422 whole entry, looked up, species assumed): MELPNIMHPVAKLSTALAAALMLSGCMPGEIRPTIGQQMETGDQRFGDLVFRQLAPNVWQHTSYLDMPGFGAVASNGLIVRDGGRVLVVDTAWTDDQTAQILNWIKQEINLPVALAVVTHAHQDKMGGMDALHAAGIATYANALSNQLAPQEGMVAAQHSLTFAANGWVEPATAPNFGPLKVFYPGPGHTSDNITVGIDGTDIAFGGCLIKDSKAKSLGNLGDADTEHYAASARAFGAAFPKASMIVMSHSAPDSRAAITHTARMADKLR
In short: (§3)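 IC50 values derive from 4-parameter fits of percent inhibition against inhibitor concentration on semi-log axes. Activity was monitored by fluorescence with the CCF2-FA substrate after a 2-hour, 25° C incubation of compound, enzyme and substrate.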

[8] = molecular target: IMP-1 (Serratia marcescens, UniProt P52699); assay: biochemical; type: biochemical; conditions: fluorescence assay, CCF2-FA substrate, 2 pM enzyme, 2 hours at 25° C.; read-out: IMP-1 IC50
Chain of IMP-1 (P52699 whole entry, looked up, species assumed): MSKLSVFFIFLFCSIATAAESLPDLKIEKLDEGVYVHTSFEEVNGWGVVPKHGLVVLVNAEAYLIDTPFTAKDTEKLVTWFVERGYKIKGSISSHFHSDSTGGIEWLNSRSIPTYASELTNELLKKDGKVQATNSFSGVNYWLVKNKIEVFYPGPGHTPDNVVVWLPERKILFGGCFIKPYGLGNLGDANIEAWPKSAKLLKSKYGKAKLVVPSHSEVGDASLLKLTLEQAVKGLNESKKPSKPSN
In short: as §3

[9] = molecular target: VIM-1 (Pseudomonas aeruginosa (strain ATCC 15692 / DSM 22644 / CIP 104116 / JCM 14847 / LMG 12228 / 1C / PRS 101 / PAO1), UniProt A0A0F7KYQ8); assay: biochemical; conditions: CCF2-FA substrate, 30 pM enzyme, 2 hours at 25° C.
In short: as §3

[10] = fluorescence assay, read-out: NDM-1 IC50
[11] = fluorescence assay, read-out: VIM-1 IC50

Structure (SMILES)	P. aeruginosa expressing IMP-1, efflux + (MB9798) MITC95 [1] [µM]	Escherichia coli expressing NDM-1 (CLB30016) MITC95 [2] [µM]	Serratia marcescens expressing IMP-1 (CL5741) MITC95 [3] [µM]	Klebsiella pneumoniae expressing VIM-1 (IHMA599644) MITC95 [4] [µM]	Efflux ratio [5]	P. aeruginosa expressing IMP-1, efflux − (MB9799) MITC95 [6] [µM]	IC50 [7, 10] [nM]	IC50 [8] [nM]	IC50 ([9]; VIM-1 IC50, fluorescence assay) [nM]	IC50 ([7]; NDM-1 IC50, fluorescence assay) [nM]	IC50 [9, 11] [nM]
Nc1nc2c(-c3ccc(S(=O)(=O)NCCC(N)CF)c(S(N)(=O)=O)c3-c3nnn[nH]3)cccc2s1.O=CO (stereo not drawn) [Example 123, 4-(4-(2-aminobenzo[d]thiazol-4-yl)-2-sulfamoyl-3-(1H-tetrazol-5-yl)phenylsulfonamido)-1-fluorobutan-2-aminium formate]	1.563	1.563	1.563	3.125	1.00	1.563	0.036	0.219	0.189		
Nc1nc2c(-c3ccc(S(=O)(=O)NCCC(N)C(F)F)c(S(N)(=O)=O)c3-c3nnn[nH]3)cccc2s1.O=CO (stereo not drawn) [Example 124, 4-(4-(2-aminobenzo[d]thiazol-4-yl)-2-sulfamoyl-3-(1H-tetrazol-5-yl)phenylsulfonamido)-1,1-difluorobutan-2-aminium formate]	12.5	12.5	3.125	12.5	4.00	3.125		0.222	0.254	0.00652	
C[C@H](N)CNS(=O)(=O)c1ccc(-c2cccc3sc(N)nc23)c(-c2nnn[nH]2)c1S(N)(=O)=O.O=CO [Example 127, (S)-4-(2-aminobenzo[d]thiazol-4-yl)-N1-(2-aminopropyl)-3-(1H-tetrazol-5-yl)benzene-1,2-disulfonamide, formate salt]	1.563	3.125	1.563	3.125	1.00	1.563	0.0421	0.322	0.236		
COC(=O)[C@H]1C[C@@H](NS(=O)(=O)c2ccc(-c3cccc4sc(N)nc34)c(-c3nnn[nH]3)c2S(N)(=O)=O)CN1 [Example 128, Methyl (2R,4R)-4-((4-(2-aminobenzo[d]thiazol-4-yl)-2-sulfamoyl-3-(1H-tetrazol-5-yl)phenyl)sulfonamido)pyrrolidine-2-carboxylate]	6.25	3.125	6.25	12.5	1.00	6.25	0.0443	0.177	0.199		
NS(=O)(=O)c1c(S(=O)(=O)N[C@@H]2CCNC2)ccc(-c2cccc3nc(O)[nH]c23)c1-c1nnn[nH]1 [Example 130, (R)-4-(2-hydroxy-1H-benzo[d]imidazol-7-yl)-N1-(pyrrolidin-3-yl)-3-(1H-tetrazol-5-yl)benzene-1,2-disulfonamide]	0.7813	1.563	1.563	3.125	0.50	1.563	0.0529	0.684			0.151
NS(=O)(=O)c1c(S(=O)(=O)N[C@@H]2CCNC2)ccc(-c2cccc3c2OC(F)(F)O3)c1-c1nnn[nH]1 [Example 131, (R)-4-(2,2-difluorobenzo[d][1,3]dioxol-4-yl)-N1-(pyrrolidin-3-yl)-3-(1H-tetrazol-5-yl)benzene-1,2-disulfonamide]	12.5	1.563	3.125	1.563	16.00	0.7813	0.275	1.83			0.12
N#Cc1cccc(-c2ccc(S(=O)(=O)N[C@@H]3CCNC3)c(S(N)(=O)=O)c2-c2nnn[nH]2)c1N [Example 132, (R)-2′-amino-3′-cyano-N4-(pyrrolidin-3-yl)-2-(1H-tetrazol-5-yl)-[1,1′-biphenyl]-3,4-disulfonamide]	3.125	0.7813	1.563	1.563	4.00	0.7813	0.114	1.4			0.124
NS(=O)(=O)c1c(S(=O)(=O)N[C@@H]2CCNC2)ccc(-c2ccc3nonc3c2)c1-c1nnn[nH]1 [Example 133, (R)-4-(benzo[c][1,2,5]oxadiazol-5-yl)-N1-(pyrrolidin-3-yl)-3-(1H-tetrazol-5-yl)benzene-1,2-disulfonamide]	6.25	0.7813	1.563	1.563	8.00	0.7813	0.341	0.816			0.118
Cn1nnc2ccc(-c3ccc(S(=O)(=O)N[C@@H]4CCNC4)c(S(N)(=O)=O)c3-c3nnn[nH]3)cc21 [Example 134, (R)-4-(1-methyl-1H-benzo[d][1,2,3]triazol-6-yl)-N1-(pyrrolidin-3-yl)-3-(1H-tetrazol-5-yl)benzene-1,2-disulfonamide]	25	1.563	3.125	3.125	15.99	1.563	0.301	2.07	0.14		
NS(=O)(=O)c1ccc(-c2ccc(S(=O)(=O)N[C@@H]3CCNC3)c(S(N)(=O)=O)c2-c2nnn[nH]2)cc1 [Example 135, (R)-N4-(pyrrolidin-3-yl)-2-(1H-tetrazol-5-yl)-[1,1′-biphenyl]-3,4,4′-trisulfonamide]	0.7813	1.563	1.563	1.563	1.00	0.7813	0.136	0.229			0.107
CS(=O)(=O)Nc1ccc(-c2ccc(S(=O)(=O)N[C@@H]3CCNC3)c(S(N)(=O)=O)c2-c2nnn[nH]2)cc1 [Example 136, (R)-4′-(methylsulfonamido)-N4-(pyrrolidin-3-yl)-2-(1H-tetrazol-5-yl)-[1,1′-biphenyl]-3,4-disulfonamide]	1.563	1.563	3.125	1.563	2.00	0.7813	0.0368	0.0755			0.105
NC(=O)c1ccc(-c2ccc(S(=O)(=O)N[C@@H]3CCNC3)c(S(N)(=O)=O)c2-c2nnn[nH]2)cc1 [Example 137, (R)-4′-(N-(pyrrolidin-3-yl)sulfamoyl)-3′-sulfamoyl-2′-(1H-tetrazol-5-yl)-[1,1′-biphenyl]-4-carboxamide]	0.7813	3.125	3.125	3.125	1.00	0.7813	0.126	0.265			0.157
